pIC50: −log10 of the molar value. Bounds are passed on as bounds.

In one assay the target is T1, recombinant human Myt1 (full length PKMYT1) (Homo sapiens, UniProt Q99640).
T1 sequence (Q99640 1-499): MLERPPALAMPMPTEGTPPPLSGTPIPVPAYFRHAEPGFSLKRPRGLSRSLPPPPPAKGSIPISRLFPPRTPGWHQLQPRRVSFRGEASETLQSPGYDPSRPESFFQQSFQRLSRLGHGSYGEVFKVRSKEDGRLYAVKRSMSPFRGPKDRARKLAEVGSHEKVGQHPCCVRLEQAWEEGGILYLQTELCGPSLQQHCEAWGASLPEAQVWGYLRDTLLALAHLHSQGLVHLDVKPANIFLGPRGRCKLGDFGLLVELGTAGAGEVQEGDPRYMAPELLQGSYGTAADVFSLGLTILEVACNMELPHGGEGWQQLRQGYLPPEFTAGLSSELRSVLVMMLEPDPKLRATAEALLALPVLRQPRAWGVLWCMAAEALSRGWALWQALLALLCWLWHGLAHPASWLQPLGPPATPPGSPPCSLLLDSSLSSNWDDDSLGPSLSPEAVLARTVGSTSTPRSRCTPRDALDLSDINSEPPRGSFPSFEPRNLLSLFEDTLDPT
Kind of assay: Recombinant human Myt1 kinase assay (ADP-Glo).
Conditions: not given
A general note: ADP-Glo first removes unused ATP, then detects ADP through luciferase.
Broadly, the pIC50 is the IC50 on a negative log10 scale, so that one unit is a factor of ten. Regarding `C=C(C)c1ccc2nc3c(C(N)=O)c(N)n(-c4c(C)ccc(O)c4C)c3nc2c1` [Compound 68, 2-amino-1-(3-hydroxy-2,6-dimethyl-phenyl)-7-isopropenyl-pyrrolo[3,2-b]quinoxaline-3-carboxamide or either 2-amino-1-(3-hydroxy-2,6-dimethyl-phenyl)-6-isopropenyl-pyrrolo[3,2-b]quinoxaline-3-carboxamide], the pIC50 was 7.89.

Consider `CCc1c(O)ccc(C)c1-n1c(N)c(C(N)=O)c2nc3ccccc3nc21` [Compound 12], for which the pIC50 is 7.01.

As for `Cc1ccc(O)c(C)c1-n1c(N)c(C(N)=O)c2nc3c(C#CC4CC4)cccc3nc21` [Compound 33], the pIC50 is 7.80.

For the molecule `Cc1ccc(O)c(C2CC2)c1-n1c(N)c(C(N)=O)c2nc3ccccc3nc21` [Compound 11], the pIC50 was 5.66.

Take `Cc1ccc(O)c(C)c1-n1c(N)c(C(N)=O)c2nc3c(C4=CCOCC4)cccc3nc21` [Compound 34]: the pIC50 was 7.92.

With `Cc1c(O)ccc(C2CC2)c1-n1c(N)c(C(N)=O)c2nc3ccccc3nc21` [Compound 85], the pIC50 was 4.31.

For `Cc1ccc(O)c(C)c1-n1c(N)c(C(N)=O)c2nc3ccc(C#CCO)cc3nc21` [Compound 58], the negative-log IC50 (pIC50) was 7.96.

With `Cc1ccc(O)c(C)c1-n1cc(C(N)=O)c2c3ccccc3cnc21` [Compound 88, 3-(3-hydroxy-2,6-dimethylphenyl)-3H-pyrrolo[2,3-c]isoquinoline-1-carboxamide], the pIC50 is 7.49.

`Cc1ccc(O)cc1-n1c(N)c(C(=O)NC2CC2)c2nc3ccccc3nc21` [Compound 20, 2-amino-N-cyclopropyl-1-(5-hydroxy-2-methylphenyl)-1H-pyrrolo[2,3-b]quinoxaline-3-carboxamide]: the pIC50 is 5.12.

`Cc1ccc(O)cc1-n1cc(C(N)=O)c2nc3ccccc3nc21` [Compound 23]: the pIC50 was 6.49.

On to `NC(=O)c1c(N)n(-c2cc(O)ccc2Cl)c2nc3ccccc3nc12` [Compound 4], for which the pIC50 was 6.89.

`Cc1ccc(O)c(C)c1-n1c(N)c(C(N)=O)c2nc3cc(C#Cc4cnccn4)ccc3nc21` [Compound 43]: the negative-log IC50 (pIC50) was greater than 8.00.

Take `Cc1ccc(O)c(C)c1-n1c(N)c(C(N)=O)c2nc3cc(-c4ccccc4)ccc3nc21` [Compound 47]: the pIC50 was greater than 8.00.

Regarding `Cc1ccc(O)c(C)c1-n1c(N)c(C(N)=O)c2nc3c(-c4cccn4C)cccc3nc21` [Compound 35], the negative logarithm of the IC50 (pIC50) is greater than 8.00.

Take `Cc1ccc(O)c(C)c1-n1c(N)c(C(N)=O)c2nc3c(nc21)CCCC3` [Compound 84]: the pIC50 is 7.96.

Consider `NC(=O)c1c(N)n(-c2cccc3[nH]nc(Cl)c23)c2nc3ccccc3nc12` [Compound 8], for which the pIC50 is 6.54.

Turning to `Cc1ccc(O)c(C)c1-n1c(N)c(C(N)=O)c2nc3c(-c4ccccc4)cccc3nc21` [Compound 36], the pIC50 is 7.77.

As to `Cc1ccc(O)c(C)c1-n1c(N)c(C(N)=O)c2nc3cc(CCCO)ccc3nc21` [Compound 46, 2-amino-1-(3-hydroxy-2,6-dimethyl-phenyl)-6-(3-hydroxypropyl)pyrrolo[2,3-b]quinoxaline-3-carboxamide], the pIC50 was greater than 8.00.

On to `Cc1ccc(O)c(C)c1-n1c(N)c(C(N)=O)c2nc3cc(C#CCO)ccc3nc21` [Compound 45, 2-amino-1-(3-hydroxy-2,6-dimethyl-phenyl)-6-(3-hydroxyprop-1-ynyl)pyrrolo[2,3-b]quinoxaline-3-carboxamide], for which the pIC50 is greater than 8.00.

Consider `Cc1ccc(O)c(C)c1-n1c(N)c(C(N)=O)c2nc3cc(C#CCN4CCOCC4)ccc3nc21` [Compound 44], for which the pIC50 is greater than 8.00.

`Cc1ccc(O)cc1-n1c(N)c(C(N)=O)c2nc3nc(N)sc3nc21` [Compound 16, 2,6-diamino-5-(5-hydroxy-2-methylphenyl)-5H-pyrrolo[2,3-b]thiazolo[4,5-e]pyrazine-7-carboxamide]: the pIC50 is 7.03.

For `CCc1ccc(O)c(C)c1-n1c(N)c(C(N)=O)c2nc3ccccc3nc21` [Compound 13], the pIC50 is 6.37.

On to `Cc1ccc(O)c(C)c1-n1c(N)c(C(N)=O)c2nc3cc(-c4ccc(N5CCN(CCO)CC5)cc4)ccc3nc21` [Compound 52], for which the pIC50 was greater than 8.00.

As to `NC(=O)c1c(N)n(-c2cccc3[nH]nc(F)c23)c2nc3ccccc3nc12` [Compound 9], the pIC50 is 6.55.

Turning to `Cc1ccc(O)c(C)c1-n1cc(C(N)=O)c2cc3c(cnn3C)nc21` [Compound 89, 5-(3-hydroxy-2,6-dimethylphenyl)-1-methyl-1,5-dihydropyrazolo[4,3-b]pyrrolo[3,2-e]pyridine-7-carboxamide], the negative logarithm of the IC50 (pIC50) was 7.51.

As for `Cc1ccc(O)c(C)c1-n1c(N)c(C(N)=O)c2nc3c(F)ccc(F)c3nc21` [Compound 28], the pIC50 was greater than 8.00.

`Cc1ccc(O)c(C)c1-n1c(N)c(C(N)=O)c2nc3cc(-c4cccc(C#N)c4)ccc3nc21` [Compound 48]: the pIC50 was 7.96.

On to `Cc1ccc(O)c(C)c1-n1c(N)c(C(N)=O)c2nc3cc(-c4cn[nH]c4)ccc3nc21` [Compound 54], for which the pIC50 was greater than 8.00.

`Cc1ccc(O)c(C)c1-n1c(N)c(C(N)=O)c2nc3cc(C4=CCOCC4)ccc3nc21` [Compound 51]: the pIC50 was greater than 8.00.

As for `Cc1ccc(O)c(C)c1-n1c(N)c(C(N)=O)c2nc3cc(C#CC4CC4)ccc3nc21` [Compound 40], the negative logarithm of the IC50 (pIC50) was greater than 8.00.

The assay is the same for the next values; noted with them: Myt1 IC50 (nM), recombinant human Myt1 18 nM, ATP 10 μM, ADP-Glo luminescence.
The IC50 is the concentration that gives 50% inhibition. Turning to `Cc1ccc(O)c(C)c1-n1c(N)c(C(N)=O)c2nc3cc(Br)ccc3nc21` [Compound 38, 2-amino-6-bromo-1-(3-hydroxy-2,6-dimethyl-phenyl)pyrrolo[2,3-b]quinoxaline-3-carboxamide], the IC50 is less than 10 nM.

As for `Cc1ccc(O)c(C)c1-n1c(N)c(C(N)=O)c2nc3cccc(-c4ccnn4C)c3nc21` [Compound 61], the IC50 was less than 10 nM.

`Cc1ccc(O)c(C)c1-n1c(N)c(C(N)=O)c2nc3cccc(C4=CCCC4)c3nc21` [Compound 62]: the IC50 was less than 10 nM.

`Cc1ccc(O)c(C)c1-n1c(N)c(C(N)=O)c2nc3cccc(Br)c3nc21` [Compound 59, 2-amino-8-bromo-1-(3-hydroxy-2,6-dimethyl-phenyl)pyrrolo[3,2-b]quinoxaline-3-carboxamide]: the IC50 was less than 10 nM.

Staying with this assay, now noted: read-out: Myt1 IC50; recombinant human Myt1 18 nM, ATP 10 μM, ADP-Glo luminescence.
“2-amino-1-(3-hydroxy-2,6-dimethyl-phenyl)-7-(1-hydroxy-1-methyl-ethyl)pyrrolo[3,2-b]quinoxaline-3-carboxamide or 2-amino-1-(3-hydroxy-2,6-dimethyl-phenyl)-6-(1-hydroxy-1-methyl-ethyl)pyrrolo[3,2-b]quinoxaline-3-carboxamide [Compound 67]”: the pIC50 was 8.00.

In the case of “2-amino-1-(3-hydroxy-2,6-dimethylphenyl)-1H-pyrido[2,3-b]pyrrolo[2,3-e]pyrazine-3-carboxamide or 2-amino-1-(3-hydroxy-2,6-dimethylphenyl)-1H-pyrido[2,3-b]pyrrolo[3,2-e]pyrazine-3-carboxamide [Compound 82]”, the pIC50 was 7.68.

Consider “2-amino-1-(3-hydroxy-2,6-dimethyl-phenyl)-7-(morpholine-4-carbonyl)pyrrolo[3,2-b]quinoxaline-3-carboxamide or 2-amino-1-(3-hydroxy-2,6-dimethyl-phenyl)-6-(morpholine-4-carbonyl)pyrrolo[3,2-b]quinoxaline-3-carboxamide [Compound 66]”, for which the pIC50 was 7.89.

For the molecule “2-amino-7-bromo-1-(3-hydroxy-2,6-dimethylphenyl)-1H-pyrido[2,3-b]pyrrolo[2,3-e]pyrazine-3-carboxamide or 2-amino-6-bromo-1-(3-hydroxy-2,6-dimethylphenyl)-1H-pyrido[2,3-b]pyrrolo[3,2-e]pyrazine-3-carboxamide [Compound 79]”, the pIC50 was 7.52.
